Source: patent US20130116287A1 (priority 2010, published 2013)
“And” between values parts separate entries of the source, which are not always exact repeats. Equal values may be shown once.

Key:
[1] = test system: Phytophthora infestans; assay type: in vivo; details: 500 ppm of active ingredient; tomato, preventive; evaluated 7 days after inoculation; 100% = no disease
[2] = Measurement of logP values by HPLC on reversed phase columns (EEC directive 79/831 Annex V.A8); assay type: physicochemical; details: HPLC; for Log P: pH 2.7, 0.1% formic acid in water / acetonitrile, single value

Compound	efficacy [1] [%]	Log P [2]	Log P [I1] main isomer ([2]; pH 2.7, 0.1% formic acid)	Log P [I2] minor isomer ([2]; pH 2.7, 0.1% formic acid)	Log P (two values printed, isomers not assigned) ([2]; pH 2.7, 0.1% formic acid, two values without isomer tag)
C#CCOCC(=O)Nc1nc(CON=C(c2ccccc2)c2nnsc2C)cs1 [Example 47]	95	3.04			
Cc1snnc1C(=NOCc1cccc(NC(=O)COc2ccccc2)n1)c1ccccc1 [Example 10]	98	4.11			
C=CCCOC(C)C(=O)Nc1cccc(CON=C(c2ccccc2)c2nnsc2C)n1 (stereo not drawn) [Example 20]	95	4.36			
Cc1snnc1C(=NOCc1cccc(NC(=O)C(C)OC2CCCCC2)n1)c1ccccc1 (stereo not drawn) [Example 56]	98	5.22			
COc1ccccc1OCC(=O)Nc1cccc(CON=C(c2ccccc2)c2nnsc2C)n1 (mixture of isomers) [Example 58]	95		4.24	4.11	
Cc1snnc1C(=NOCc1csc(NC(=O)C(C)OC2CCCCC2)n1)c1ccccc1 (stereo not drawn) [Example 55]	98	4.76			
Cc1snnc1C(=NOCc1cccc(NC(=O)COc2ccc(Cl)cc2)n1)c1ccccc1 [Example 36]	100	4.49			
Cc1snnc1C(=NOCc1cccc(NC(=O)COC2CCCC2)n1)c1ccccc1 [Example 24]	95	4.51			
Cc1snnc1C(=NOCc1cccc(NC(=O)COc2ccc(I)cc2)n1)c1ccccc1 [Example 46]	100				
Cc1snnc1C(=NOCc1csc(NC(=O)C(C)OCC2CCCCC2)n1)c1ccccc1 (stereo not drawn) [Example 73]	100	5.35			
Cc1snnc1C(=NOCc1csc(NC(=O)COCCC2CCCC2)n1)c1ccccc1 [Example 77]	95	4.91			
C#CCOC(CC)C(=O)Nc1nc(CON=C(c2ccccc2)c2nnsc2C)cs1 (stereo not drawn) [Example 104]	98	3.61			
Cc1snnc1C(=NOCc1cccc(NC(=O)COCC2CCCC2)n1)c1ccccc1 [Example 109]	89	5.01			
Cc1snnc1C(=NOCc1csc(NC(=O)CSCCc2ccccc2)n1)c1ccccc1 [Example 51]		4.24			
Cc1snnc1C(=NOCc1cccc(NC(=O)COc2ccc(Cl)cc2)n1)c1ccccc1 (mixture of isomers) [Example 35]	95		4.51		
Cc1snnc1C(=NOCc1cccc(NC(=O)COCC2CCCCO2)n1)c1ccccc1 (stereo not drawn) [Example 72]	75	3.92			
Cc1snnc1C(=NOCc1cccc(NC(=O)C(C)SCc2ccccc2)n1)c1ccccc1 (stereo not drawn) [Example 99]	100	4.58			
Cc1snnc1C(=NOCc1cccc(NC(=O)COc2ccccc2)n1)c1ccccc1 (mixture of isomers) [Example 9]	95		4.14	4.01	
Cc1snnc1C(=NOCc1csc(NC(=O)CSCCC(C)C)n1)c1ccccc1 [Example 67]	95	4.41			
Cc1snnc1C(=NOCc1csc(NC(=O)C(C)SCc2ccccc2)n1)c1ccccc1 (stereo not drawn) [Example 98]	98	4.26			
C=CCCOCC(=O)Nc1nc(CON=C(c2ccccc2)c2nnsc2C)cs1 [Example 37]	98	3.68			

Compound	efficacy [1] [%]	Log P [2]	Log P [I1] main isomer ([2]; pH 2.7, 0.1% formic acid)	Log P [I2] minor isomer ([2]; pH 2.7, 0.1% formic acid)	Log P (two values printed, isomers not assigned) ([2]; pH 2.7, 0.1% formic acid, two values without isomer tag)
Cc1snnc1C(=NOCc1csc(NC(=O)CSc2ccccc2)n1)c1ccccc1 (mixture of isomers) [Example 5]	95		3.89	3.78	
Cc1snnc1C(=NOCc1cccc(NC(=O)COCC2CC2)n1)c1ccccc1 [Example 18]	100	3.92			
CCCCOC(C)C(=O)Nc1cccc(CON=C(c2ccccc2)c2nnsc2C)n1 (stereo not drawn) [Example 97]	97				
Cc1snnc1C(=NOCc1cccc(NC(=O)C(C)Oc2ccccc2)n1)c1ccccc1 (stereo not drawn) [Example 16]	100	4.41			
Cc1snnc1C(=NOCc1csc(NC(=O)C(C)OCC2CCCC2)n1)c1ccccc1 (stereo not drawn) [Example 75]	100	4.9			
Cc1snnc1C(=NOCc1cccc(NC(=O)COc2cccc(Cl)c2)n1)c1ccccc1 (mixture of isomers) [Example 43]			4.53	4.41	
Cc1snnc1C(=NOCc1csc(NC(=O)COCC2CC2)n1)c1ccccc1 [Example 17]	97	3.53			
Cc1snnc1C(=NOCc1cccc(NC(=O)COCC2CCC2)n1)c1ccccc1 [Example 54]	97	4.54			
Cc1snnc1C(=NOCc1cccc(NC(=O)C(C)OCC2CCC2)n1)c1ccccc1 (stereo not drawn) [Example 111]		4.93			
Cc1snnc1C(=NOCc1cccc(NC(=O)C(C)Oc2ccc(F)cc2)n1)c1ccccc1 (stereo not drawn) [Example 96]	97				
C#CCOC(CC)C(=O)Nc1cccc(CON=C(c2ccccc2)c2nnsc2C)n1 (stereo not drawn) [Example 105]	95	3.9			
Cc1snnc1C(=NOCc1csc(NC(=O)COCC2CCCC2)n1)c1ccccc1 [Example 108]	100	4.53			
Cc1snnc1C(=NOCc1csc(NC(=O)COc2ccccc2Cl)n1)c1ccccc1 (mixture of isomers) [Example 31]	95		4.19	4.06	
C#CCOC(C)C(=O)Nc1cccc(CON=C(c2ccccc2)c2nnsc2C)n1 (stereo not drawn) [Example 14]	100	3.58			
C#CCOC(C)C(=O)Nc1nc(CON=C(c2ccccc2)c2nnsc2C)cs1 (stereo not drawn) [Example 13]	100	3.29			
CCCCOCC(=O)Nc1nc(CON=C(c2ccccc2)c2nnsc2C)cs1 [Example 21]	93	3.99			
CCCCOCC(=O)Nc1cccc(CON=C(c2ccccc2)c2nnsc2C)n1 [Example 22]	95	4.41			
Cc1snnc1C(=NOCc1cccc(NC(=O)CSCCC(C)C)n1)c1ccccc1 [Example 68]	95				
Cc1snnc1C(=NOCc1csc(NC(=O)C(C)Oc2ccc(F)cc2)n1)c1ccccc1 (stereo not drawn) [Example 95]	100	4.06			
CC(=O)OC(C)(C)C(=O)Nc1nc(CON=C(c2ccccc2)c2nnsc2C)cs1 (mixture of isomers) [Example 100]	95		3.35	3.25	
Cc1snnc1C(=NOCc1csc(NC(=O)COc2cccc(Cl)c2)n1)c1ccccc1 (mixture of isomers) [Example 41]	100				4.24 and 4.11

Compound	efficacy [1] [%]	Log P [2]	Log P [I1] main isomer ([2]; pH 2.7, 0.1% formic acid)	Log P [I2] minor isomer ([2]; pH 2.7, 0.1% formic acid)	Log P (two values printed, isomers not assigned) ([2]; pH 2.7, 0.1% formic acid, two values without isomer tag)
Cc1snnc1C(=NOCc1csc(NC(=O)COc2cccc(Cl)c2)n1)c1ccccc1 [Example 42]	100	4.19			
Cc1snnc1C(=NOCc1csc(NC(=O)CSC2CCCC2)n1)c1ccccc1 [Example 106]	92	4.14			
C=CCSCC(=O)Nc1nc(CON=C(c2ccccc2)c2nnsc2C)cs1 [Example 91]	95	3.52			
Cc1snnc1C(=NOCc1cccc(NC(=O)C(C)OCC2CC2)n1)c1ccccc1 (stereo not drawn) [Example 40]	97				
Cc1snnc1C(=NOCc1cccc(NC(=O)COCc2ccccc2)n1)c1ccccc1 [Example 30]	95	4.29			
Cc1snnc1C(=NOCc1cccc(NC(=O)C(C)OCC(C)C)n1)c1ccccc1 (stereo not drawn) [Example 86]	95	4.83			
Cc1snnc1C(=NOCc1cccc(NC(=O)COC(C)C)n1)c1ccccc1 [Example 66]	93	3.94			
CC(=NOCC(=O)Nc1cccc(CON=C(c2ccccc2)c2nnsc2C)n1)c1ccccc1 [Example 112]	95	4.51			
Cc1snnc1C(=NOCc1cccc(NC(=O)CSC2CCCCC2)n1)c1ccccc1 [Example 88]	97	4.87			
Cc1snnc1C(=NOCc1csc(NC(=O)CSC2CCCCC2)n1)c1ccccc1 [Example 87]	97	4.46			
Cc1snnc1C(=NOCc1cccc(NC(=O)COc2ccccc2Cl)n1)c1ccccc1 (mixture of isomers) [Example 32]	93		4.61	4.49	
Cc1snnc1C(=NOCc1csc(NC(=O)COc2ccc(Cl)cc2)n1)c1ccccc1 [Example 34]	100	4.19			
Cc1snnc1C(=NOCc1cccc(NC(=O)C(C)(C)Oc2ccccc2)n1)c1ccccc1 [Example 103]	100	4.93			
Cc1snnc1C(=NOCc1csc(NC(=O)COCCC2CCCCC2)n1)c1ccccc1 [Example 83]	95	5.28			
C=CCCOCC(=O)Nc1cccc(CON=C(c2ccccc2)c2nnsc2C)n1 [Example 38]	100	3.99			
Cc1snnc1C(=NOCc1csc(NC(=O)C(C)OCC2CCC2)n1)c1ccccc1 (stereo not drawn) [Example 110]		4.49			
Cc1snnc1C(=NOCc1csc(NC(=O)COc2ccc(I)cc2)n1)c1ccccc1 [Example 45]	100	4.44			
Cc1snnc1C(=NOCc1cccc(NC(=O)COCCC(C)C)n1)c1ccccc1 [Example 4]	93				
CCOC(C)(C)C(=O)Nc1nc(CON=C(c2ccccc2)c2nnsc2C)cs1 [Example 61]	100	3.94			
Cc1snnc1C(=NOCc1csc(NC(=O)COCC2CCCCO2)n1)c1ccccc1 (stereo not drawn) [Example 71]	90	3.76			
CC(=O)OCC(=O)Nc1nc(CON=C(c2ccccc2)c2nnsc2C)cs1 (mixture of isomers) [Example 11]			2.78	2.68	
